Measured values from article PMC11672801, “Synthesis of Temporin-SHa Retro Analogs with Lysine Addition/Substitution and Antibiotic Conjugation to Enhance Antibacterial, Antifungal, and Anticancer Activities” (Antibiotics, 2024).
Converted amounts (≈) assume the structure as drawn. Like-named read-outs stand apart in the source and are kept apart here. Where a SMILES comes first, the peptide text is derived from it. [ ]: non-standard residue; d: D form. The star is where a group is joined. Levofloxacinoyl = C[C@H]1COc2c(N3CCN(C)CC3)c(F)cc3c(=O)c(C(=O)*)cn1c23; βAla = NCCC(=O)O

How the values were obtained:
B. subtilis (ATCC 23857) = test: Antibacterial broth microdilution MIC assay; format: cell-based, Bacillus subtilis; settings: >99% inhibition of growth, MH broth, 20-22 h, 37 °C
Procedure: (§1) The antibacterial activity of peptide analogs was tested against different bacterial strains, i.e., Salmonella enterica subsp. enterica serotype Typhimurium or Salmonella typhi (ATCC 14028), Staphylococcus aureus (NCTC 13277), Bacillus subtilis (ATCC 23857), Escherichia coli (ATCC 25922), and Pseudomonas aeruginosa (ATCC 10145). These strains were obtained from the microbial bank of Dr. Panjwani Center for Molecular Medicine and Drug research (PCMD), International Center for Chemical and Biological Sciences (ICCBS), University of Karachi. Colonies of these bacterial strains were grown in respective agar media, then inoculated in Mueller Hinton (MH) broth (Oxoid, UK) and incubated at 37 °C overnight. The peptide solutions were first diluted 1 in 100 (from the stock solution at 20 mM) and then further two-fold dilution in MH broth in a sterile 96-well plate was performed, resulting in 100 µL of broth containing increasing concentrations of analogs. Bacteria in their exponential growth phase were diluted in MH broth, and 100 µL of this suspension was added in each well. […] Then, these plates were incubated at 37 °C for 20–22 h. MIC (Minimum Inhibitory Concentration) values were determined as the concentrations of peptides causing >99% inhibition of bacterial growth.

E. coli (ATCC 25922) = test: Antibacterial broth microdilution MIC assay; format: cell-based, Escherichia coli; settings: >99% inhibition of growth, MH broth, 20-22 h, 37 °C
Procedure: as §1

[1] = system: P. aeruginosa (ATCC 10145); test: Antibacterial broth microdilution MIC assay; format: cell-based, Pseudomonas aeruginosa; settings: >99% inhibition of growth, MH broth, 20-22 h, 37 °C
Procedure: as §1

C. albicans (ATCC 36082) = test: microbe, parasite or virus in culture
Procedure: Candida albicans (ATCC 36082) was cultured on Sabourad Dextrose Agar (SDA). A single colony was inoculated in Sabouraud Dextrose Broth (SDB) medium and grown overnight at 37 °C while shaking. The next day, the susceptibility of C. albicans was tested using a broth microdilution assay. Peptide analogs were diluted in SDB media by two-fold dilution, resulting in 100 µL of medium containing increasing concentrations of analogs. The overnight culture (turbidity at OD600 = 1) was 1000× diluted in SDB. Then 100 µL of this suspension was added to each well, resulting in a final 200 µL suspension containing 2–4 × 10^5 CFU/mL. The plate was incubated at 37 °C for 24 h. The next day, MIC (Minimum Inhibitory Concentration) values were determined as the concentrations of peptides causing > 99% inhibition of yeast growth.

[2] = system: Human breast cancer (MCF-7) cells; test: cells; format: cell-based
Procedure: (§2) Human breast cancer (MCF-7) and human cervical cancer (HeLa) cells were obtained from the cell culture bank of PCMD in ICCBS, University of Karachi. These cells were maintained in Dulbecco’s Modified Eagle Medium (DMEM), supplemented with 10% fetal bovine serum, and incubated at 37 °C and 5% CO2. The antiproliferative activity of the samples was determined by a MTT assay. Briefly, the cells were washed with PBS and trypsinized. After determination of the cell number using Malassez cell counting, 100 µL of the cell suspension were seeded in a 96-well plate at the density of 6000 cells/well and incubated at 37 °C and 5% CO2. After 24 h, the cells were treated with increasing concentrations of analogs. The next day, media was removed and 200 µL of MTT dye (0.5 mg/mL) was added in each well and incubated for 3 h at 37 °C in 5% CO2 incubator. Then, the media was removed and 100 µL of DMSO was added to solubilize formazan crystals. After one minute of shaking, the absorbance was recorded at 540 nm in microplate reader (Multiskan GO, ThermoScientific, Waltham, MA, USA). Finally, the percent inhibition of proliferation was calculated using the following formula: % inhibition of proliferation=O.D of treated well−O.D of media control/O.D of untreated control−O.D of media control×100

[3] = system: human cervical cancer (HeLa) cells; test: cells; format: cell-based; settings: 24 h
Procedure: as §2

[4] = system: human red blood cells (RBC); test: Hemolytic assay; format: cell-based
Procedure: For the hemolytic assay, fresh human blood (2 mL) was obtained from a healthy donor in EDTA tube while following the protocol of approval from the Independent Ethics Committee of ICCBS (approval number ICCBS/IEC-047-HB-2019/Protocol/1.0). The blood was centrifuged and upper supernatant plasma was removed. The cell pellets were washed with sterile PBS three times. The washed blood cells were then diluted 25 times to make 4% concentration of the initial blood cells. Red blood cells (500 µL) were treated with increasing concentrations of analogs, with triton X-100 at 0.1% being used as positive control giving 100% hemolysis. After 1 h of incubation at 37 °C, tubes were centrifuged at 800 rpm for 5 min to pellet down red blood cells. After centrifugation, 200 µL of supernatant were transferred into a 96 well plate and the absorbance was recorded at 576 nm using a microplate reader (MultiSkan Go, ThermoScientific). Then, the following formula was applied to calculate percent hemolysis: % Hemolysis=O.D of test sample−O.D of PBS control/O.D of Tritox×positive control−O.D of PBS control×100

[5] = system: cancer cells (MCF-7, HeLa); design: species or system human
Procedure: The selectivity of action of the analogs against micro-organisms or cancer cells was further evaluated through calculation of their selectivity indexes (SIs). SIs were determined using either the MIC on micro-organisms or IC50 on cancer cells compared to HC50 values, and they are reported in Table 6.

S. aureus (NCTC 13277) = settings: >99% inhibition of growth, MH broth, 20-22 h, 37 °C
[6] = Circular dichroism secondary structure analysis (Bestsel) in 20 mM SDS; format: physicochemical; settings: CD, 15 µM peptide in 20 mM SDS, 22 °C
Procedure: The far-ultraviolet circular dichroism (CD) spectra were recorded using a JASCO J-810 spectropolarimeter (Jasco, Tokyo, Japan), with measurements taken in a quartz cuvette with a 10 mm path length. The temperature was kept at 22 °C, and the instrument was calibrated with D-(+)-10-camphorsulfonic acid. Peptides were dissolved in 20 mM SDS to a final concentration of 15 µM. The CD spectra were collected over a wavelength range of 190 to 260 nm with a bandwidth of 2 nm. Each spectrum was recorded with ten consecutive scans at a rate of 50 nm/min, and the baseline was obtained under identical conditions. Secondary structures, i.e., the percentage of alpha-helix and other secondary structures, were quantified from CD data using Bestsel software (https://bestsel.elte.hu/index.php, accessed on 22 October 2024).

[7] = >99% inhibition of yeast growth, SDB, 24 h, 37 °C
[8] = MTT, 24 h exposure, read-out: IC50 on Breast Cancer (MCF-7)
[9] = >99% inhibition of growth, MH broth, 20-22 h, 37 °C

SMILES | MIC (B. subtilis (ATCC 23857)) | MIC (E. coli (ATCC 25922)) | MIC [1] | MIC C. albicans (ATCC 36082) (C. albicans (ATCC 36082); ATCC 36082, 24 h) | IC50 ([2]; 24 h) | IC50 [3] | HC50 on Human Red Blood Cells (RBCs) [4] | HC50 on Human Red Blood Cells (RBCs) ([4]; red cells of human, 1 h) | IC50 [5] | MIC S. aureus (NCTC 13277) (S. aureus (NCTC 13277)) | MIC S. typhi (ATCC 14028) (S. typhi (ATCC 14028); ATCC 14028) | MIC C. albicans (ATCC 36082) (C. albicans (ATCC 36082); [7]) | IC50 [2, 8] | Antiparallel (%) [6] | Helix (%) [6] | Others (%) [6] | Parallel (%) [6] | Turn (%) [6] | MIC S. typhi (ATCC 14028) (S. typhi (ATCC 14028); [9])
CC[C@H](C)[C@H](NC(=O)[C@@H](NC(=O)CNC(=O)[C@H](CCSC)NC(=O)[C@H](CC(C)C)NC(=O)CNC(=O)[C@H](CCCCN)NC(=O)[C@H](CC(C)C)NC(=O)[C@@H](N)Cc1ccccc1)C(C)C)C(=O)N[C@H](C)C(=O)N[C@@H](CO)C(=O)N[C@@H](CC(C)C)C(=O)N[C@@H](Cc1ccccc1)C(=O)N[C@@H](CCCCNC(=O)c1cn2c3c(c(N4CCN(C)CC4)c(F)cc3c1=O)OC[C@@H]2C)C(N)=O [RLFP-1 (4), H-Phe^1-Leu^2-Lys^3-Gly^4-Leu^5-Met^6-Gly^7-Val^8-Ile^9-D-Ala^10-Ser^11-Leu^12-Phe^13-Lys^14(LF)-NH2] (H-FLKGLMGVI[dA]SLFK(Levofloxacinoyl)-NH2) | 50 µM (≈ 93.3 µg/mL) | >200 µM | >200 µM | >250 µM | > 100 µM | > 100 µM | 98.6 µM | 98.9 µM | > 100 µM | 50 µM (≈ 93.3 µg/mL) | 25 µM (≈ 46.7 µg/mL) |  |  |  |  |  |  |  | 
CC[C@H](C)[C@H](NC(=O)[C@@H](NC(=O)CNC(=O)[C@H](CCSC)NC(=O)[C@H](CC(C)C)NC(=O)CNC(=O)[C@H](CCCCN)NC(=O)[C@H](CC(C)C)NC(=O)[C@H](Cc1ccccc1)NC(=O)CCNC(=O)c1cn2c3c(c(N4CCN(C)CC4)c(F)cc3c1=O)OC[C@@H]2C)C(C)C)C(=O)N[C@H](C)C(=O)N[C@@H](CO)C(=O)N[C@@H](CC(C)C)C(=O)N[C@@H](Cc1ccccc1)C(=O)N[C@@H](CCCCN)C(N)=O [RLFP-3 (6), LF-β-Ala-Phe^1-Leu^2-Lys^3-Gly^4-Leu^5-Met^6-Gly^7-Val^8-Ile^9-D-Ala^10-Ser^11-Leu^12-Phe^13-Lys^14-NH2] ({Levofloxacinoyl-βAla}-FLKGLMGVI[dA]SLFK-NH2) | 1.56 µM (≈ 3.02 µg/mL) | 25 µM (≈ 48.4 µg/mL) | 12.5 µM (≈ 24.2 µg/mL) |  | 13.3 µM | 12.1 µM |  | 6.6 µM |  | 12.5 µM (≈ 24.2 µg/mL) | 3.12 µM (≈ 6.04 µg/mL) | 3.12 µM (≈ 6.04 µg/mL) |  |  |  |  |  |  | 
CC[C@H](C)[C@H](NC(=O)[C@@H](NC(=O)CNC(=O)[C@H](CCSC)NC(=O)[C@H](CC(C)C)NC(=O)[C@H](CCCCN)NC(=O)[C@H](CCCCN)NC(=O)[C@H](CC(C)C)NC(=O)[C@H](Cc1ccccc1)NC(=O)CCNC(=O)c1cn2c3c(c(N4CCN(C)CC4)c(F)cc3c1=O)OC[C@@H]2C)C(C)C)C(=O)N[C@H](C)C(=O)N[C@@H](CO)C(=O)N[C@@H](CC(C)C)C(=O)N[C@@H](Cc1ccccc1)C(N)=O [RLFP-4 (8), LF-β-Ala-Phe^1-Leu^2-Lys^3-Lys^4-Leu^5-Met^6-Gly^7-Val^8-Ile^9-D-Ala^10-Ser^11-Leu^12-Phe^13-NH2] ({Levofloxacinoyl-βAla}-FLKKLMGVI[dA]SLF-NH2) | 1.56 µM (≈ 2.93 µg/mL) | 25 µM (≈ 47 µg/mL) | 12.5 µM (≈ 23.5 µg/mL) | >200 µM | 23.8 µM | 15.5 µM |  | 4.5 µM |  | 6.25 µM (≈ 11.8 µg/mL) | 50 µM (≈ 94 µg/mL) |  |  |  |  |  |  |  | 
CC[C@H](C)[C@H](NC(=O)[C@@H](NC(=O)CNC(=O)[C@H](CCSC)NC(=O)[C@H](CC(C)C)NC(=O)CNC(=O)[C@H](CCCCN)NC(=O)[C@H](CC(C)C)NC(=O)[C@@H](N)Cc1ccccc1)C(C)C)C(=O)N[C@H](C)C(=O)N[C@@H](CO)C(=O)N[C@@H](CC(C)C)C(=O)N[C@@H](Cc1ccccc1)C(N)=O [RNST-2 (2), H-Phe^1-Leu^2-Lys^3-Gly^4-Leu^5-Met^6-Gly^7-Val^8-Ile^9-D-Ala^10-Ser^11-Leu^12-Phe^13-NH2] (H-FLKGLMGVI[dA]SLF-NH2) | 1.56 µM (≈ 2.18 µg/mL) | 50 µM (≈ 69.7 µg/mL) | 200 µM (≈ 279 µg/mL) |  |  | 60 µM |  | 13.8 µM |  | 3.12 µM (≈ 4.35 µg/mL) |  | 15.6 µM (≈ 21.8 µg/mL) | 53 µM | 17.9% | 62% | 0.00% | 20.1% | 0.00% | 50 µM (≈ 69.7 µg/mL)
CC[C@H](C)[C@H](NC(=O)[C@@H](NC(=O)CNC(=O)[C@H](CCSC)NC(=O)[C@H](CC(C)C)NC(=O)[C@H](CCCCN)NC(=O)[C@H](CCCCN)NC(=O)[C@H](CC(C)C)NC(=O)[C@@H](N)Cc1ccccc1)C(C)C)C(=O)N[C@H](C)C(=O)N[C@@H](CO)C(=O)N[C@@H](CC(C)C)C(=O)N[C@@H](Cc1ccccc1)C(N)=O [RSP-4 (7), H-Phe^1-Leu^2-Lys^3-Lys^4-Leu^5-Met^6-Gly^7-Val^8-Ile^9-D-Ala^10-Ser^11-Leu^12-Phe^13-NH2] (H-FLKKLMGVI[dA]SLF-NH2) | 12.5 µM (≈ 18.3 µg/mL) | 50 µM (≈ 73.3 µg/mL) | 200 µM (≈ 293 µg/mL) | 100 µM (≈ 147 µg/mL) |  | 56.9 µM | > 100 µM |  |  | 50 µM (≈ 73.3 µg/mL) |  |  | 39.9 µM | 22.1% | 56.8% | 13.6% | 0.00% | 7.6% | 100 µM (≈ 147 µg/mL)
